# Data reported in BindingDB's records for doi:10.1016/j.bmcl.2010.11.060 (Msd, 2010).
# Test: Inhibition of MCP1-mediated human THP cell migration
row,SMILES,IC50 [µM]
1,O=c1[nH]ccc2c(S(=O)(=O)N3CCCNCC3)cccc12,6.92
2,Nc1nccc2cc(CNCCc3ccccc3)ccc12,> 31.6
3,C[C@@H](N)[C@H]1CC[C@H](C(=O)Nc2ccncc2)CC1 [4-[(1R)-1-aminoethyl]-N-(pyridin-4-yl)cyclohexane-1-carboxamide],2.63
4,O=S(=O)(c1cccc2cnccc12)N1CCCNCC1 [AT877],6.92
